PMC10432564, “Pharmacological perturbation of the phase-separating protein SMNDC1” (Nature Communications, 2023)

Experiments:
SMN-RFP intron 5-6, αTC1 = assay: Live imaging of SMN-RFP; format: cell-based, mouse; conditions: 50 µM, 16 h
Description: Cell lines with fluorescent tags in the endogenous intron loci of different genes were generated as described in Serebrenik et al., and Reicher et al.[39],[74]. Cells were transiently transfected using Avalanche-Everyday Transfection Reagent with three plasmids in parallel: (1) the donor plasmid containing the artificial intron with splice acceptor and splice donor site, the fluorescent tag GFP or RFP, and a possible correction for the frame of the targeted intron, (2) a pX330 backbone containing Cas9 and the gRNA against the donor plasmid, and (3) a plasmid expressing the gRNA against the target intron (see table below). After 3–5 days, GFP- and/or RFP-positive cells were sorted on a SONY SH800 Cell Sorter to get fluorescent single cell clones. […]
Images were analyzed using the high-content image acquisition and analysis software Harmony® 4.9 developed by PerkinElmer. […] Even though the highest staining of these nuclear markers is obviously detected in the nucleus they still produce a significant staining of the cytoplasm above background. After defining the respective cell areas, mean intensity in the different channels was measured. […]

αTC1 cells = assay: Cell death, AnnexinV and Propidium Iodide staining
Description: PI+ cells (αTC1), treated with DMSO or compound 1 . Data shown as mean + standard

CN(C)S(=O)(=O)c1ccc(C(=O)Nc2nc(-c3ccccn3)cs2)cc1 [compound 1]
number of SMN spots in the cytoplasm (SMN-RFP intron 5-6, αTC1): increased
overall intensity of SMN (SMN-RFP intron 5-6, αTC1): decreased
percentage of AnnexinV and Propidium Iodide (PI) positive cells (αTC1 cells; 16 h after start of treatment): elevated
outcome of longer treatment (αTC1 cells; longer than 12–16 h at 50 µM): cell death
AnnexinV or PI staining relative to DMSO (αTC1 cells; reviewer's reading of the plot (Supplementary Fig. 5)): 2-3 times
